According to patent US5079257A, “Indoloquinone compounds” (priority 1986, dated 1992):
In brackets after ≈: the same amount, converted by molar mass. Read-outs that look alike come from different tables or passages of the source.

How the values were obtained:
[1] = system: MCF7 breast cancer cells; test: In vitro panel of human tumour lines (TNO): MCF-7; format: cell-based; details: about 72 hours; further: key: -: no inhibition of cell growth; +: total cell-kill
Procedure: (§1) Compounds E.O. 1, E.O. 2, E.O. 4, E.O. 4A, E.O. 8, E.O. 9, […], E.O. 33, and E.O. 35 were tested for their activity against five human tumour cell lines at the Radiobiological Institute TNO Rijswijk.
(§2) The new in vitro prescreen uses human tumour clones; it was set up by Dr. P. Lelieveld at TNO Rijswijk and comprises testing compounds in a bioliquid assay for their cytostatic activity against the following five human tumour lines:
(§3) After a continuous exposure to the drugs to be tested and to Adriamycin in `24 well tissue culture clusters, type 3524 (Costar)`, the remaining cells are fixed and stained. Using increasing drug concentrations the inhibiting concentration can be estimated qualitatively.
(§4) Cells: the human tumour cells are maintained in Dulbecco's medium supplemented with 10 percent foetal calf serum.
(§5) M and W cell suspensions: 10^5 cells/ml.
(§6) The cells were grafted into 16 mm wells for 48 hours (0.5 ml cell suspension per well was used).
(§7) Drugs: the compound to be tested was dissolved in appropriate concentrations in a mixture of Hepes-buffered Hanks' balanced salt solution and ethanol. The drug solutions (0.05 ml) were added to the different wells. The final ethanol concentration in each well was less than one percent.
(§8) The cells were continuously incubated with the compound under test at 37° in an atmosphere of 10 percent CO2 in humidified air for about 72 hours.
(§9) Determination of the inhibiting dose: the cells were fixed and stained with a solution of crystal violet in methanol/formaldehyde.

[2] = system: T 24 cells; bladder carcinoma; test: In vitro panel of human tumour lines (TNO): T 24; format: cell-based; details: about 72 hours; further: key: -: no inhibition of cell growth; +: total cell-kill
Procedure: as §1, §2, §3, §4
(§10) A, T and Z cell suspensions: 5·10^4 cells/ml
as §6, §7, §8, §9

[3] = system: A 204 cells; rhabdomyosarcoma; test: In vitro panel of human tumour lines (TNO): A 204; format: cell-based; details: about 72 hours; further: key: -: no inhibition of cell growth; +: total cell-kill
Procedure: as §1, §2, §3, §4, §10, §6, §7, §8, §9

[4] = system: P 388 tumour cells; test: In vivo P388 experiments (Brussels); set-up: species or system mice; details: for MAX T/C: days 1 to 5
Procedure: These experiments were carried out at the Institute Jules Bordet, Brussels, on CDF, female mice. The mice were inoculated intraperitoneally (IP) with 1×10^6 P 388 tumour cells. After 24 hours, the compounds were administrated as suspensions in "Tween-80" or using saline as vehicle. Six mice were used at each dose of the compound, given on days 1 to 5 and eighteen control mice were injected with saline.

[5] = system: WiDr cells; colon tumour; test: In vitro panel of human tumour lines (TNO): WiDr; format: cell-based; details: about 72 hours; further: key: -: no inhibition of cell growth; +: total cell-kill
Procedure: as §1, §2, §3, §4, §5, §6, §7, §8, §9

[6] = system: L1210 cells; test: L1210 activity (bioliquid assay), cytotoxicity; format: cell-based; details: Mus musculus, L1210, 48 h
From the text: The indoloquinones II (formula II) have been tested in respect of their cytotoxic activity against L1210 cells and R-1 cells (Rhabdomyosarcoma Cells) in a bioliquid assay at the department of oncology of the Free University of Amsterdam (Table I). In addition to this seven compounds (E.O. 1, E.O. 2, E.O. 4, E.O. 7, E.O. 9, E.O. 16 and E.O. 17) have been tested on L1210 activity in a clonogenic assay at TNO, Rijswijk. Further, the lowest active doses of the compounds E.O. 1, E.O. 2, E.O. 4 and E.O. 9 have been determined at TNO Rijswijk, according to the method described by Lamberts et al. [Oncology, 40, 301 (1983)]. (Table II). Eight indoloquinones (E.O. 1, E.O. 2, E.O. 4, E.O. 4A, E.O. 8, E.O. 9, E.O. 33 and E.O. 35) have been tested in a panel of five human tumour lines (TNO Rijswijk; Table III). From the latter group three indoloquinones (E.O. 1, E.O. 4 and E.O. 9) have been selected for a cytotoxicity study, involving five slowly growing human tumour lines (University of Freiburg; Table IV).
For this purpose, L1210 cells were grown, as suspension, in Falcon multi-wells (growth area: 9.6 cm^2) using RPMI supplemented with 15% FCS and 2-mercapto-ethanol (60 μmol) as medium. In this medium, the cells were continuously incubated with the compound to be tested at 37° C. in an atmosphere of 5% CO2 in humidified air for 48 hours. Thereupon they were counted on a Sysmex microcell counter (CC110).
(§11) The in vitro L1210 and R-1 activities of the indoloquinones (formula III), were also determined in the bioliquid assays as described above.

[7] = system: R-1 cells (Rhabdomyosarcoma Cells); test: R-1 activity (bioliquid assay), cytotoxicity; format: cell-based; details: Rhabdomyosarcoma cell
From the text: The indoloquinones II (formula II) have been tested in respect of their cytotoxic activity against L1210 cells and R-1 cells (Rhabdomyosarcoma Cells) in a bioliquid assay at the department of oncology of the Free University of Amsterdam (Table I). […] (Table II). Eight indoloquinones (E.O. 1, E.O. 2, E.O. 4, E.O. 4A, E.O. 8, E.O. 9, E.O. 33 and E.O. 35) have been tested in a panel of five human tumour lines (TNO Rijswijk; Table III).
For the determination of the R-1 activity, Rhabdomyosarcoma cells were brought into Falcon multiwells (growth area: 9.6 cm^2) (~10^6 cells per dish) containing 3 ml of Dulbecco's medium supplemented with 10% Foeto Calf Serum (FCS). […] Thereupon the drug solution was removed and the cells were covered with fresh medium. After 48 hours the cells were trypsinized and counted on a Sysmex microcell counter (CC110).
as §11

[8] = system: IgR37 cells melanoma; test: In vitro panel of human tumour lines (TNO): IgR-37; format: cell-based; details: about 72 hours; further: key: -: no inhibition of cell growth; +: total cell-kill
Procedure: as §1, §2, §3, §4, §10, §6, §7, §8, §9

[9] = Half-wave reduction potentials / polarography (University of Utrecht); format: physicochemical; details: pH = 8 vs Ag/AgCl
From the text: *The halve wave reduction potentials (E1/2) have been determined at the
Pharmaceutical Laboratory of University of Utrecht. Only the first
(quinone) reduction potential has been given.
Additional evidence for the occurrence of a bioreductive activation mechanism during the cytotoxic action of indoloquinones (II) was obtained via electrochemical studies, which have been carried out at the Pharmaceutical Laboratory of the University of Utrecht. […]

[10] = system: Ovarian (MRI-H-207) line; format: in vivo, human
From the text: The xenograft experiments have been carried by Dr. H. H. Fiebig of the University of Freiburg [Lung-NSCLC (LXGF) line, Renal line, Breast line; See: H. H. Fiebig et al., Behring Inst. Mitt., 74 343] and by Dr. E. Boven of the Free University Hospital Amsterdam [Ovarian (MRI-H-207) line; See: E. Boven et al., Cancer Res., 45, 86 (1985) and E. Boven et al., Eur. J. Clin. Oncol., 21, 1253 (1985)].
Mice: C57B1 athymic (nu/nu) female mice, 8 to 10 weeks of age were used for s.c. bilateral implantation of tumour fragments 2 mm diameter.
Treatment: E.O. 9 was dissolved in saline at a concentration of 0.5 mg/ml prior to administration. Drug doses and schedules were derived from studies in experimental murine tumour systems and from orientation studies in non-tumour-bearing nude mice. Treatment was started i.v. when tumours measured 50-150 mm^3. After randomization a group of 6-7 tumour-bearing mice was treated and a group of 5-6 tumour-bearing mice served as control.
Evaluation of efficacy: Tumours were measured twice weekly in three dimensions. Efficacy was expressed as the mean of relative tumour volume in treated animals vs. that in control animals×100 (% T/C). The optimal value was calculated within 35 days after the last injection. Toxic death (dead mice within two weeks after the last injection) were excluded from the evaluation.
MRI-H-207: An undifferentiated adenocarcinoma kindly provided by Dr. A. E. Bogden, Worcester, Mass, with a doubling time of 3-5 days.

[11] = read-out: ID-50 L1210, Table VIII
[12] = read-out: ID-50 R-1, Table I, bioliquid assay
[13] = read-out: ID-50 R-1, Table VIII
[14] = 60 mg/kg, days of treatment 0,6,13,20
[15] = 150 mg/kg, days of treatment 0,9,16

Row | SMILES | in vitro activity score, MCF-7 ([1]; 0.01 μg/ml) | in vitro activity score, MCF-7 ([1]; 0.1 μg/ml) | in vitro activity score, MCF-7 ([1]; 10 μg/ml) | in vitro activity score, T 24 ([2]; 0.01 μg/ml) | in vitro activity score, T 24 ([2]; 0.1 μg/ml) | in vitro activity score, T 24 ([2]; 1.0 μg/ml) | in vitro activity score, A 204 ([3]; 0.01 μg/ml) | in vitro activity score, A 204 ([3]; 0.1 μg/ml) | in vitro activity score, A 204 ([3]; 1.0 μg/ml) | in vitro activity score, WiDr ([5]; 0.01 μg/ml) | in vitro activity score, WiDr ([5]; 0.1 μg/ml) | in vitro activity score, WiDr ([5]; 1.0 μg/ml) | IC50 [6, 11] | IC50 [7, 13] | in vitro activity score, IgR-37 ([8]; 0.01 μg/ml) | in vitro activity score, IgR-37 ([8]; 10 μg/ml) | in vitro activity score, MCF-7 ([1]; 1.0 μg/ml) | other results
1 | CC(=O)OCc1c2c(n(C)c1/C=C/CO)C(=O)C=C(N1CC1)C2=O [E.O. 4A, 3-Acetoxymethyl-5-aziridino-1-methyl-2-[1H-indole-4,7-dione]prop-β-en-α-ol] | - | - | + | - | - | + | - | - | + | - | - | + | 0.15 µg/mL (≈ 0.454 µM) | 0.022 µg/mL (≈ 0.0666 µM) | - | + |  | in vitro activity score, T 24 ([2]; 10 μg/ml): +; in vitro activity score, A 204 ([3]; 10 μg/ml): +; MAX T/C ([4]; 100 mg/kg): 120%; in vitro activity score, WiDr ([5]; 10 μg/ml): +; IC50 [7, 12]: 0.02 µg/mL (≈ 0.0605 µM); in vitro activity score, IgR-37 ([8]; 1.0 μg/ml): +
2 | CC1CN1C1=CC(=O)c2c(c(CO)c(/C=C/CO)n2C)C1=O (stereo not drawn) [E.O. 8, 3-Hydroxymethyl-1-methyl-5-propyleneamino-2-[1H-indole-4,7-dione]prop-β-en-α-ol] | - | - | - | - | - | - | - | - | - | - | - | - | 0.48 µg/mL (≈ 1.59 µM) | 7.6 µg/mL (≈ 25.1 µM) | - | + | - | half-wave potential E1.2, wave I [9]: -380 mV; half-wave potential E1.2, wave II [9]: -780 mV; IC50 ([6]; read-out: ID-50 L1210, Table I, bioliquid assay, 48 hours): 0.5 µg/mL (≈ 1.65 µM); in vitro activity score, IgR-37 ([8]; 0.1 μg/ml): -; in vitro activity score, IgR-37 ([8]; 1.0 μg/ml): -
3 | O=c1[nH]cc(F)c(=O)[nH]1 [5FU] |  |  |  |  |  |  |  |  |  |  |  |  |  |  |  |  |  | T/C % [10, 14]: 63%; toxic deaths [10, 14]: 0/7
4 | CC(=O)OC/C=C/c1c(COC(C)=O)c2c(n1C)C(=O)C(C)=C(N1CC1)C2=O [E.O. 35, 3-Acetoxymethyl-5-aziridino-1,6-dimethyl-2-[1H-indole-4,7-dione]prop-β-en-αyl acetate] | - | - |  | - | - | - | - | - | - | - | - | - | 0.55 µg/mL | 0.32 µg/mL | - | + | - | MAX T/C ([4]; 400 mg/kg): 131%; T/C at the optimal dose ([4]; optimal dose): ~130%; IC50 [7, 12]: 0.3 µg/mL; in vitro activity score, IgR-37 ([8]; 0.1 μg/ml): -
5 | CN(Cc1cnc2nc(N)nc(N)c2n1)c1ccc(C(=O)N[C@@H](CCC(=O)O)C(=O)O)cc1 [Methotrex., reference compound] | - | - | - |  |  |  |  | + | + | - |  |  |  |  | - |  | - | in vitro activity score, A 204 ([3]; 10 μg/ml): +; T/C % [10, 15]: 47%; toxic deaths [10, 15]: 2/7
6 | O=P1(N(CCCl)CCCl)NCCCO1 (stereo not drawn) [CTX] |  |  |  |  |  |  |  |  |  |  |  |  |  |  |  |  |  | toxic deaths [10]: 2/7
7 | N.N.O=C([O-])C1(C(=O)[O-])CCC1.[Pt+2] [Carboplatin] |  |  |  |  |  |  |  |  |  |  |  |  |  |  |  |  |  | toxic deaths ([10]; 60 mg/kg, days of treatment 0.6): 0/6
8 | COc1cccc2c1C(=O)c1c(O)c3c(c(O)c1C2=O)C[C@@](O)(C(=O)CO)C[C@@H]3O[C@H]1C[C@H](N)[C@H](O)[C@H](C)O1 [DXR] |  |  |  |  |  |  |  |  |  |  |  |  |  |  |  |  |  | toxic deaths ([10]; 10 mg/kg, days of treatment 0.7): 1/6
9 | CN(C)c1nc(N(C)C)nc(N(C)C)n1 [HMM] |  |  |  |  |  |  |  |  |  |  |  |  |  |  |  |  |  | toxic deaths ([10]; 150 mg/kg, days of treatment 0,2,4,6): 1/6
